What was measured:
human MER (528-end) = target: T1, human MER (528-end) (Homo sapiens, UniProt Q12866); assay: HTRF kinase activity biochemical assay, MER; conditions: 10 μM ATP, 30 minutes pre-incubation; read-out: HTRF MERTK IC50
T1 construct: human MER (528-end); purchased Camnabio, Japan
T1 sequence (Q12866 528-999 limits assumed): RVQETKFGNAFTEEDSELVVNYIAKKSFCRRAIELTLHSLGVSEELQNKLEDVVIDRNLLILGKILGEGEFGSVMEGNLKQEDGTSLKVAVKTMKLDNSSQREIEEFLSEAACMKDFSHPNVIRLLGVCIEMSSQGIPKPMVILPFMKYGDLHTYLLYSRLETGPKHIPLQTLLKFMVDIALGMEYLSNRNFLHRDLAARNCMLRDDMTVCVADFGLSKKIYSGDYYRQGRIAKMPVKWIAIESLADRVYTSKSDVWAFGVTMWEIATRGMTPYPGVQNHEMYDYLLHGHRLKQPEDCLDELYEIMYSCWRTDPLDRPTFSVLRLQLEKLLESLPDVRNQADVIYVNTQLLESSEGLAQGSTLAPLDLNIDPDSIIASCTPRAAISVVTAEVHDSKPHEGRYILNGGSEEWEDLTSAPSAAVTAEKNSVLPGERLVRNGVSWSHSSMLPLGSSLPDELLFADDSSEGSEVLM

human AXL (473-end) = target: T2, human AXL (473-end) (Homo sapiens, UniProt P30530); assay: HTRF kinase activity biochemical assay, AXL; conditions: 10 μM ATP, 30 minutes pre-incubation
T2 construct: human AXL (473-end); purchased SignalChem, Canada
T2 sequence (P30530 473-894 limits assumed): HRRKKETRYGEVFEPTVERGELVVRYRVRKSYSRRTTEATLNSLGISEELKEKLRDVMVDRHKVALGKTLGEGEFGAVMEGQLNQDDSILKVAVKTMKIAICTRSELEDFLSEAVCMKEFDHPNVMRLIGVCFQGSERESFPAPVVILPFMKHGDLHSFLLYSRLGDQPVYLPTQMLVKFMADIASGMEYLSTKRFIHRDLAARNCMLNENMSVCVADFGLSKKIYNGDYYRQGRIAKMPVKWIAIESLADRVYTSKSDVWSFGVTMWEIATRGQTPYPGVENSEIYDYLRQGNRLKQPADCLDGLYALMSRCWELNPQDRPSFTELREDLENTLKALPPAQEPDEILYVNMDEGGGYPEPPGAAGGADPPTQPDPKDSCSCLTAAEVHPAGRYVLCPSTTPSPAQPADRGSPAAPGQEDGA

human TYRO3 (455-end) = target: T3, human TYRO3 (455-end) (Homo sapiens, UniProt Q06418); assay: HTRF kinase activity biochemical assay, TYRO3; conditions: 10 μM ATP, 30 minutes pre-incubation; read-out: HTRF TYRO IC50
T3 construct: TYRO3 (455-end); purchased SignalChem, Canada
T3 sequence (Q06418 455-890 limits assumed): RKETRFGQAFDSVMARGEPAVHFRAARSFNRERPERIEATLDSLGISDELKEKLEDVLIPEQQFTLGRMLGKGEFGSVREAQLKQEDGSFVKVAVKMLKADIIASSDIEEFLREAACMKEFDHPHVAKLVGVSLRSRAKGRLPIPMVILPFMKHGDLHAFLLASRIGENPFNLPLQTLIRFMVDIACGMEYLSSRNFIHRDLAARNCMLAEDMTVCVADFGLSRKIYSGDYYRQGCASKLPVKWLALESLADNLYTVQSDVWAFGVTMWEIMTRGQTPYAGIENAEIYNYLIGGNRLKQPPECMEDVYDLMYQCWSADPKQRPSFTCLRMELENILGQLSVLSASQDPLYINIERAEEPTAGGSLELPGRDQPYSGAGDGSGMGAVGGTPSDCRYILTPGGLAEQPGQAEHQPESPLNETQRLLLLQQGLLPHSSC

| Structure (SMILES) | IC50 (human MER (528-end)) [nM] | IC50 (human AXL (473-end)) [nM] | IC50 (human TYRO3 (455-end)) [nM] |
| --- | --- | --- | --- |
| Cn1cc(-c2cnc(N)c(C(=O)N[C@H]3CCC[C@@H]3OCc3ccc(-c4ccc5[nH]c(C(F)(F)F)cc5c4)cc3)c2)cn1 [Example 53, 2-amino-5-(1-methyl-1H-pyrazol-4-yl)-N-[(1S,2S)-2-({4-[2-(trifluoromethyl)-1H-indol-5-yl]phenyl}methoxy)cyclopentyl]pyridine-3-carboxamide] | 100 to 1000 | 100 to 1000 | > 1000 |
| Cc1cn(C)c2ccc(-c3ccc(CO[C@H]4CCC[C@@H]4NC(=O)c4cc(-c5cnn(C)c5)cnc4N)cc3)cc12 [Example 54, 2-amino-N-[(1S,2S)-2-{[4-(1,3-dimethyl-1H-indol-5-yl)phenyl]methoxy}cyclopentyl]-5-(1-methyl-1H-pyrazol-4-yl)pyridine-3-carboxamide] | 10 to 100 | 10 to 100 | > 1000 |
| Cc1[nH]c2ccc(-c3ccc(CO[C@H]4CCC[C@@H]4NC(=O)c4cc(-c5cnn(C)c5)cnc4N)cc3)cc2c1C [Example 55, 2-amino-N-[(1S,2S)-2-{[4-(2,3-dimethyl-1H-indol-5-yl)phenyl]methoxy}cyclopentyl]-5-(1-methyl-1H-pyrazol-4-yl)pyridine-3-carboxamide] | 10 to 100 | 10 to 100 | > 1000 |
| Cc1cc2cc(-c3ccc(CO[C@H]4CCC[C@@H]4NC(=O)c4cc(-c5cnn(C)c5)cnc4N)cc3)ccc2[nH]1 [Example 56, 2-amino-N-[(1S,2S)-2-{[4-(2-methyl-1H-indol-5-yl)phenyl]methoxy}cyclopentyl]-5-(1-methyl-1H-pyrazol-4-yl)pyridine-3-carboxamide] | 10 to 100 | 10 to 100 | > 1000 |
| Cn1cc(-c2cnc(N)c(C(=O)N[C@H]3CCC[C@@H]3OCc3ccc(-c4ccc5c(ccn5CCC(=O)O)c4)cc3)c2)cn1 [Example 58, 3-{5-[4-({[(1S,2S)-2-{[2-amino-5-(1-methyl-1H-pyrazol-4-yl)pyridine-3-carbonyl]amino}cyclopentyl]oxy}methyl)phenyl]-1H-indol-1-yl}propanoic acid] | 10 to 100 | 100 to 1000 | > 1000 |
| Cn1cc(-c2cnc(N)c(C(=O)N[C@H]3CCC[C@@H]3OCc3ccc(-c4ccc5c(ccn5CC(=O)O)c4)cc3)c2)cn1 [Example 61, {5-[4-({[(1S,2S)-2-{[2-amino-5-(1-methyl-1H-pyrazol-4-yl)pyridine-3-carbonyl]amino}cyclopentyl]oxy}methyl)phenyl]-1H-indol-1-yl}acetic acid] | 10 to 100 | 10 to 100 | > 1000 |
| Cn1ccc(-c2cnc(N)c(C(=O)N[C@H]3CCC[C@@H]3OCc3ccc(-c4ccc5c(c4)CC(F)(F)C5N4CCN(CC(O)CO)CC4)cc3)c2)cc1=O (stereo partly drawn) [Example 63, 6-amino-N-{(1S,2S)-2-[(4-{1-[4-(2,3-dihydroxypropyl)piperazin-1-yl]-2,2-difluoro-2,3-dihydro-1H-inden-5-yl}phenyl)methoxy]cyclopentyl}-1′-methyl-2′-oxo-1′,2′-dihydro[3,4′-bipyridine]-5-carboxamide] | < 10 | < 10 | 100 to 1000 |

Results, then the compound that gave them:

| IC50 (human MER (528-end)) [nM] | IC50 (human AXL (473-end)) [nM] | IC50 (human TYRO3 (455-end)) [nM] | Structure (SMILES) |
| --- | --- | --- | --- |
| < 10 | < 10 | 100 to 1000 | Cn1cc(-c2cnc(N)c(C(=O)N[C@H]3COC[C@@H]3OCc3ccc(-c4ccc5c(c4)CC[C@@H]5N4CCN(CCO)CC4)cc3)c2)cn1 [Example 45, 2-amino-N-{(3S,4R)-4-[(4-{(1S)-1-[4-(2-hydroxyethyl)piperazin-1-yl]-2,3-dihydro-1H-inden-5-yl}phenyl)methoxy]oxolan-3-yl}-5-(1-methyl-1H-pyrazol-4-yl)pyridine-3-carboxamide] |
| < 10 | < 10 | 10 to 100 | Cc1c(-c2cnc(N)c(C(=O)N[C@H]3COC[C@@H]3OCc3ccc(-c4ccc5c(c4)C(C)(C)CN5C4CCN(CCO)CC4)cc3)c2)cnn1C [Example 47, 2-amino-5-(1,5-dimethyl-1H-pyrazol-4-yl)-N-{(3S,4R)-4-[(4-{1-[1-(2-hydroxyethyl)piperidin-4-yl]-3,3-dimethyl-2,3-dihydro-1H-indol-5-yl}phenyl)methoxy]oxolan-3-yl}pyridine-3-carboxamide] |
| < 10 | < 10 | 100 to 1000 | CC1(C)CN(C2CCN(CCO)CC2)c2ccc(-c3ccc(CO[C@H]4COC[C@@H]4NC(=O)c4cc(-c5cccnc5F)cnc4N)cc3)cc21 [Example 49, 6-amino-2′-fluoro-N-{(3S,4R)-4-[(4-{1-[1-(2-hydroxyethyl)piperidin-4-yl]-3,3-dimethyl-2,3-dihydro-1H-indol-5-yl}phenyl)methoxy]oxolan-3-yl}[3,3′-bipyridine]-5-carboxamide] |
| < 10 | < 10 | 100 to 1000 | Cn1cc(-c2cnc(N)c(C(=O)N[C@H]3CCC[C@@H]3OCc3ccc(-c4ccc5c(c4)CC(F)(F)C5N4CCN(CCO)CC4)cc3)c2)cn1 (stereo partly drawn) [Example 50, 2-amino-N-{(1S,2S)-2-[(4-{2,2-difluoro-1-[4-(2-hydroxyethyl)piperazin-1-yl]-2,3-dihydro-1H-inden-5-yl}phenyl)methoxy]cyclopentyl}-5-(1-methyl-1H-pyrazol-4-yl)pyridine-3-carboxamide] |
| < 10 | < 10 | < 10 | C=C(C)c1cnc(N)c(C(=O)N[C@H]2CCC[C@@H]2OCc2ccc(-c3ccc4c(c3)C(C)(C)CN4C3CCN(CCO)CC3)cc2)c1 [Example 51, 2-amino-N-{(1S,2S)-2-[(4-{1-[1-(2-hydroxyethyl)piperidin-4-yl]-3,3-dimethyl-2,3-dihydro-1H-indol-5-yl}phenyl)methoxy]cyclopentyl}-5-(prop-1-en-2-yl)pyridine-3-carboxamide] |
| < 10 | 10 to 100 | 100 to 1000 | CC1(C)CN(C2CCN(CCO)CC2)c2ccc(-c3ccc(CO[C@H]4COC[C@@H]4NC(=O)c4nc(-c5ccc(F)nc5)cnc4N)cc3)cc21 [Example 52, 3-amino-6-(6-fluoropyridin-3-yl)-N-{(3S,4R)-4-[(4-{1-[1-(2-hydroxyethyl)piperidin-4-yl]-3,3-dimethyl-2,3-dihydro-1H-indol-5-yl}phenyl)methoxy]oxolan-3-yl}pyrazine-2-carboxamide] |
| < 10 | 10 to 100 | > 1000 | Cn1cc(-c2cnc(N)c(C(=O)N[C@H]3CCC[C@@H]3OCc3ccc(-c4ccc5c(ccn5CCO)c4)cc3)c2)cn1 [Example 57, 2-amino-N-[(1S,2S)-2-({4-[1-(2-hydroxyethyl)-1H-indol-5-yl]phenyl}methoxy)cyclopentyl]-5-(1-methyl-1H-pyrazol-4-yl)pyridine-3-carboxamide] |
| < 10 | 10 to 100 | > 1000 | CC(C)n1ccc2cc(-c3ccc(CO[C@H]4CCC[C@@H]4NC(=O)c4cc(-c5cnn(C)c5)cnc4N)cc3)ccc21 [Example 60, 2-amino-5-(1-methyl-1H-pyrazol-4-yl)-N-[(1S,2S)-2-({4-[1-(propan-2-yl)-1H-indol-5-yl]phenyl}methoxy)cyclopentyl]pyridine-3-carboxamide] |
| < 10 | < 10 | > 1000 | Nc1ncc(-c2ccc(F)nc2)cc1C(=O)N[C@H]1CCC[C@@H]1OCc1ccc(-c2ccc3c(c2)CC(F)(F)C3N2CCN(CC(O)CO)CC2)cc1 (stereo partly drawn) [Example 62, 6-amino-N-{(1S,2S)-2-[(4-{1-[4-(2,3-dihydroxypropyl)piperazin-1-yl]-2,2-difluoro-2,3-dihydro-1H-inden-5-yl}phenyl)methoxy]cyclopentyl}-6′-fluoro[3,3′-bipyridine]-5-carboxamide] |
